Reference: US10322105B2, “Pharmaceutical composition containing Ginkgolide B and ADP receptor antagonist, preparation method thereof and use thereof” (CHENGDU BAIYU PHARMACEUTICAL CO., LTD, priority 2014, dated 2019)
Where a name gives a salt, the structure may show the parent alone. Read-outs that look alike come from different tables or passages of the source.

Key:
[1] = tested on: platelet aggregation induced by PAF; test: Platelet aggregation rate induced by PAF in platelet-rich plasma of rabbits after 7 days of administration; assay type: in vivo, Japanese large-ear white rabbits; settings: 5.0 mg/kg once daily for 7 days; for Platelet aggregation rate 1 min / Platelet aggregation rate 5 min / Maximum platelet aggregation rate (MAX): PRP, x ± s, n = 8; for Platelet aggregation rate 1 min: 1 min after addition of 10 μL PAF; for Platelet aggregation rate 5 min: 5 min after addition of 10 μL PAF; for Maximum platelet aggregation rate (MAX): after addition of PAF; for inhibition at 5 mg/kg: Oryctolagus cuniculus, Platelet, 168 h
Procedure: (§1) All groups were administered with a clinically used route and dosage for 7 days continuously.
After 7 days of administration, 10.5 ml of blood was taken from the heart of each animal, wherein 1.5 ml of […] was used for taking serum and the rest 9 ml of […] was subjected to 3.8% sodium citrate at 1:9 for anticoagulation, centrifuging for 10 minutes at 800 r/min, and taking the supernatant to obtain platelet-rich plasma (PRP), wherein 100 μl of the PRP was taken for electron microscope examination, and the rest of the PRP was used for detecting of the platelet aggregation rate; the remaining portion was centrifuged for 15 min at a speed of 3000 r/min, and platelet-depleted plasma (PPP) was obtained. PPP was used to adjust the number of platelet in PRP, to be at 360×10^9/L. The platelet aggregation rate was recorded at 1 min, 5 min of addition of 10 μL of PAF inducer and the maximum platelet aggregation rate was recorded after the addition of PAR

[2] = tested on: platelets; test: Scanning electron microscopy study of platelet morphology after addition of PAF; assay type: in vivo, Japanese large-ear white rabbits; settings: rabbits, 5.0 mg/kg once daily for 7 days; PRP after addition of PAF, 100 platelets observed
Procedure: as §1
The 100 μL of PRP was placed in a silicification EP tube, and 1 μL of PAF was added to induce aggregation of platelets for 15 minutes, the PRP was then placed on a copper mesh sample support laid with a Formar membrane, incubating at 37° C. for 10 min, washing with ultrapure water, fixing with 3% glutaraldehyde for 5 minutes, rewashing with ultrapure water. After the sample on the copper mesh was naturally dried, a layer of 20 nm gold film was plated on the surface of the sample, and the cell morphology was studied with an electron microscope S-3000N. 100 of platelets were observed and calculated the ratio of each type of platelet. The types of platelet under the electron microscope includes: (1) Circle type appears circular or oval, with small size, compact center, large core and low and narrow transparent periphery zone. (2) Tree like type has a single or a plurality of elongated or sheet-shaped sometimes branched foot protrudes from the dense center. (3) Flat type has a dense core in the center and a wide transparent peripheral zone which has a smooth periphery or small bulges. (4) Aggregated-type is usually composed of several to dozens of platelets, with different sizes of the aggregates, wherein the platelets are mutually connected, some of the platelets are integrally fused into a whole, and the foot processes of the peripheral part are prominent.

[3] = in vivo; cited from earlier work
[4] = PLATO study, cited from earlier work
[5] = cited from earlier work
[6] = PAF-induced, relative to Saline group

Row | SMILES | Platelet aggregation rate 1 min [1] | Platelet aggregation rate 5 min [1] | Maximum platelet aggregation rate (MAX) [1] | inhibition at 5 mg/kg [1, 6] | Types of morphology: Circle [2] | Types of morphology: Flat [2] | Types of morphology: Tree like [2] | Occurrence rate of common side effects (digestive tract symptoms and rash) [3] | Occurrence rate of interventricular interval ([4]; acute stage) | Occurrence rate of interventricular interval ([4]; after one month) | Severe bleeding rate ([5]; Clopidogrel-treated patients) | Common side effects: abdominal pain ([5]; clinical trial (CAPRIE)) | Common side effects: diarrhea ([5]; clinical trial (CAPRIE)) | Common side effects: digestive tract hemorrhage ([5]; clinical trial (CAPRIE)) | Common side effects: dyspepsia ([5]; clinical trial (CAPRIE)) | Common side effects: intracranial hemorrhage ([5]; clinical trial (CAPRIE)) | Common side effects: rash ([5]; clinical trial (CAPRIE)) | Common side effects: serious granulocyte reduction ([5]; clinical trial (CAPRIE)) | Platelet aggregation inhibition rate [1, 6]
1 | CC(=O)Oc1cc2c(s1)CCN(C(C(=O)C1CC1)c1ccccc1F)C2 (centres unmarked) [Prasugrel] | 37.14 ± 8.59 | 55.56 ± 7.53 | 63.12 ± 5.47 | 10.1% | 9.9 ± 7.6 % | 25.4 ± 8.7 % | 19.6 ± 6.8 % | – | – | – | – | – | – | – | – | – | – | – | –
2 | Clc1ccccc1CN1CCc2sccc2C1 [Ticlopidine] | – | – | – | – | – | – | – | about 10% | – | – | – | – | – | – | – | – | – | – | –
3 | CCCSc1nc(N[C@@H]2C[C@H]2c2ccc(F)c(F)c2)c2nnn([C@@H]3C[C@H](OCCO)[C@@H](O)[C@H]3O)c2n1 [Ticagrelor, (1S,2S,3R,5S)-3-[7-[(1R,2S)-2-(3,4-Difluorophenyl)cycloprolamino]-5-(propylsulfanyl)-3H-[1,2,3]triazolo [4,5-d]pyrimidin-3-yl]-5-(2-hydroxyethoxy) cyclopenane-1,2-diol] | 34.21 ± 5.75 | 60.50 ± 9.24 | 67.74 ± 9.36 | 3.53% | 6.2 ± 7.5% | 33.6 ± 10.7 % | 21.4 ± 9.4 % | – | 60% | 2.2% | – | – | – | – | – | – | – | – | –
4 | COC(=O)[C@H](c1ccccc1Cl)N1CCc2sccc2C1 [Clopidogrel, (S)-alpha-(2-chlorphenyl)-6,7-dihydrothieno [3,2-c]pyridine-5-(4H)acetate hydrogen sulfate] | 35.27 ± 6.08 | 53.73 ± 8.46 | 60.96 ± 9.50 | 13.2% | 7.7 ± 7.8% | 30.7 ± 13.6 % | 24.6 ± 8.8 % | – | – | – | 1.4% | 6% | 5% | 2% | 5% | 0.4% | 4% | 0.04% | –
5 | CC1C(=O)OC2C(O)C34C5CC(C(C)(C)C)C36C(OC(=O)C6O)OC4(C(=O)O5)C12O (centres unmarked) [Ginkgolide B] | 21.36 ± 4.15 | 33.54 ± 5.48 | – | – | 31.6 ± 6.4 % | 46.1 ± 8.3 % | 15.8 ± 6.8 % | – | – | – | – | – | – | – | – | – | – | – | 44.66%
